Test results published in article PMC4363471, “Crystal Structure of Helicobacter pylori Pseudaminic Acid Biosynthesis N-Acetyltransferase PseH: Implications for Substrate Specificity and Catalysis” (PLoS ONE, 2015).

Molecular target: T1, PseH (Helicobacter pylori, UniProt O25094)
T1 construct: recombinant; 21 kDa; homodimer
Test: X-ray crystal structure ([…] Å, co-crystallization)
Assay type: binding
Conditions: co-crystallized with 5 mM AcCoA; cofactor site between strands β4 and β5

T1 sequence (O25094 whole entry): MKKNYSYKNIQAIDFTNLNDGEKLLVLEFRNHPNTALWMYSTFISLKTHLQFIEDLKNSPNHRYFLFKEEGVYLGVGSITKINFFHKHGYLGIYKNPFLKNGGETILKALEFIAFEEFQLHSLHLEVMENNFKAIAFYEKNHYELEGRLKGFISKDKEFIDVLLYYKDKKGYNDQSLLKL

## CC(=O)SCCNC(=O)CCNC(=O)[C@H](O)C(C)(C)COP(=O)(O)OP(=O)(O)OC[C@H]1O[C@@H](n2cnc3c(N)ncnc32)[C@H](O)[C@@H]1OP(=O)(O)O [AcCoA]
  X-ray crystal structure (2.3 Å, co-crystallization): Analysis of the difference Fourier map revealed an AcCoA binding site between the splayed strands
